According to US8188064B2, “Vitamin D analogs for obesity prevention and treatment” (Wisconsin Alumni Research Foundation, priority 2003, dated 2012):
Entries after “also recorded” stand apart in the source; their conditions may differ.

Tests used:
SCD-1 mRNA = assay: Inhibition of SCD-1 mRNA induction in 3T3-L1 cells (RT-PCR); format: cell-based, murine; conditions: for inhibition of SCD-1 mRNA induction: result in words, MDI-treated 3T3-L1 cells; for inhibition of SCD1 mRNA induction: tested at 1×10^−8.5 M
Description: Chomczynski, P. et al., Anal. […] NO: 4)).

3T3-L1 cells = assay: Inhibition of 3T3-L1 differentiation into mature adipocytes (Oil-Red-O staining); format: cell-based, murine; conditions: for inhibition of differentiation of 3T3-L1 cells into mature adipocytes (Oil-Red-O staining): result in words, MDI-treated cells, staining at day 10; for inhibition of differentiation of MDI-treated 3T3-L1 cells (oil-red-O staining): tested at 1×10^−8.5 M
Description: Various 19-nor vitamin D analogs were or are tested and found to inhibit the differentiation of preadipocytes into mature adipocytes, to reduce body fat, to inhibit an increase in PPARγ, C/EBPα, and/or SCD-1 gene transcription and to be useful in treating and preventing obesity both in vivo and in vitro. The undifferentiated preadipocyte 3T3-L1 subline, a derivative of the original mouse fibroblast cell line, is one of the most accepted models for investigating the adipogenesis process and was used for the analysis. Two days after reaching confluence, 3T3-L1 cells can be induced to differentiate into adipocytes (see Mackall, J. C. et al. J. Biol. Chem., 251(20), 6462-6464 (1976)) with the addition of a cAMP phosphodiesterase inhibitor, dexamethasone (a glucocortoid), and insulin. […] The induction of PPARγ and C/EBPα is required for adipocyte differentiation. […] SCD-1 is an enzyme found in adipocytes that converts saturated fatty acids (C16 and C18) to their monounsaturated forms (C16:1 and C18:1). The deposition of triglyceride can also be detected as early as 3 days, and by the 7th to 14th days post-confluence, greater than 80% of the cells in the monolayer stain positively with Oil-red-O.

[1] = test system: 24-hydroxylase (24Ohase) gene promoter in ROS 17/2.8 (bone) cells; assay: In vitro transcription assay (luciferase reporter); format: cell-based; conditions: result in words
Description: Transcription activity was measured in ROS 17/2.8 (bone) cells that were stably transfected with a 24-hydroxylase (24Ohase) gene promoter upstream of a luciferase reporter gene (Arbour et al., 1998). Cells were given a range of doses. Sixteen hours after dosing the cells were harvested and luciferase activities were measured using a luminometer. RLU=relative luciferase units.

[2] = Bone calcium mobilization (serum calcium on low calcium diet); format: in vivo, rat; conditions: result in words; vitamin D deficient rat model, compared to 1α,25(OH)2D3
Description: (§1) Male, weanling Sprague-Dawley rats were placed on Diet 11 (0.47% Ca) diet+AEK for one week followed by Diet 11 (0.02% Ca)+AEK for 3 weeks. The rats were then switched to a diet containing 0.47% Ca for one week followed by two weeks on a diet containing 0.02% Ca. Dose administration began during the last week on 0.02% calcium diet. Four consecutive ip doses were given approximately 24 hours apart. Twenty-four hours after the last dose, blood was collected from the severed neck and the concentration of serum calcium determined as a measure of bone calcium mobilization. The first 10 cm of the intestine was also collected for intestinal calcium transport analysis using the everted gut sac method.

[3] = Intestinal calcium transport (everted gut sac); format: in vivo; conditions: result in words, vitamin D deficient rat model, compared to 1α,25(OH)2D3
Description: as §1

[4] = test system: Human promyelocytic leukemia (HL60) cells; assay: HL-60 differentiation (nitro blue tetrazolium reduction); format: cell-based; conditions: for cells induced to differentiate in the NBT assay: concentration 1×10^−7 M; for differentiation of HL-60 cells, compared to 1α,25(OH)2D3: result in words
Description: The study drugs were dissolved in ethanol and the concentrations determined using UV spectrophotometry. Serial dilutions were prepared so that a range of drug concentrations could be tested without changing the final concentration of ethanol (≦0.2%) present in the cell cultures.
Human promyelocytic leukemia (HL60) cells were grown in RPMI-1640 medium containing 10% fetal bovine serum. The cells were incubated at 37° C. in the presence of 5% CO2.
HL60 cells were plated at 1.2×10^5 cells/ml. Eighteen hours after plating, cells in duplicate were treated with drug. Four days later, the cells were harvested and a nitro blue tetrazolium reduction assay was performed (Collins et al., 1979; J. Exp. Med. 149:969-974). The percentage of differentiated cells was determined by counting a total of 200 cells and recording the number that contained intracellular black-blue formazan deposits. Verification of differentiation to monocytic cells was determined by measuring phagocytic activity (data not shown).

[5] = biological target: T1, full-length recombinant rat vitamin D receptor (Rattus norvegicus, UniProt P13053); assay: Vitamin D receptor binding (competition with 3H-1,25(OH)2D3); conditions: result in words, competition for tritiated hormone binding
T1 construct: Full-length recombinant rat receptor was expressed in E. coli; histidine tag (C); made in house; host or cells: E. coli BL21(DE3) Codon Plus RIL
T1 sequence (P13053 1-423): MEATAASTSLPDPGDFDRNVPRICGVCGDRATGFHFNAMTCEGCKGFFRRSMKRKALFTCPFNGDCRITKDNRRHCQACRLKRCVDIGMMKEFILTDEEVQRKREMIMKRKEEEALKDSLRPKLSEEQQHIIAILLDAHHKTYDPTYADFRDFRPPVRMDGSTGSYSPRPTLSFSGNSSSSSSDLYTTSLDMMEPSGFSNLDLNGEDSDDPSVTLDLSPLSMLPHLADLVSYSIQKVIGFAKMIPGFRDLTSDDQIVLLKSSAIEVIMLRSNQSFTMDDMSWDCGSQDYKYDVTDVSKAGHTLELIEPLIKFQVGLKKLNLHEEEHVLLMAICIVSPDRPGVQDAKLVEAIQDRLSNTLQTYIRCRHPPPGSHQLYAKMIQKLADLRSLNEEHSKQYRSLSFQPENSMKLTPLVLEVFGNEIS
Description: Full-length recombinant rat receptor was expressed in E. coli BL21(DE3) Codon Plus RIL cells and purified to homogeneity using two different column chromatography systems. The first system was a nickel affinity resin that utilizes the C-terminal histidine tag on this protein. The protein that was eluted from this resin was further purified using ion exchange chromatography (S-Sepharose Fast Flow). Aliquots of the purified protein were quick frozen in liquid nitrogen and stored at −80° C. until use. For use in binding assays, the protein was diluted in TEDK50 (50 mM Tris, 1.5 mM EDTA, pH 7.4, 5 mM DTT, 150 mM KCl) with 0.1% Chaps detergent. The receptor protein and ligand concentration was optimized such that no more than 20% of the added radiolabeled ligand was bound to the receptor.
Unlabeled ligands were dissolved in ethanol and the concentrations determined using UV spectrophotometry (1,25(OH)2D3: molar extinction coefficient=18,200 and λmax=265 nm; Analogs: molar extinction coefficient=42,000 and λmax=252 nm). Radiolabeled ligand (^3H-1,25(OH)2D3, ˜159 Ci/mmole) was added in ethanol at a final concentration of 1 nM.
Radiolabeled and unlabeled ligands were added to 100 mcl of the diluted protein at a final ethanol concentration of ≦10%, mixed and incubated overnight on ice to reach binding equilibrium. The following day, 100 mcl of hydroxylapatite slurry (50%) was added to each tube and mixed at 10-minute intervals for 30 minutes. The hydroxylapaptite was collected by centrifugation and then washed three times with Tris-EDTA buffer (50 mM Tris, 1.5 mM EDTA, pH 7.4) containing 0.5% Titron X-100. After the final wash, the pellets were transferred to scintillation vials containing 4 ml of Biosafe II scintillation cocktail, mixed and placed in a scintillation counter. Total binding was determined from the tubes containing only radiolabeled ligand.

[6] = Hypercalcemia / serum calcium analysis; format: in vivo, rat; conditions: normal vitamin D sufficient rats, very high oral doses

SMILES	inhibition of SCD-1 mRNA induction (SCD-1 mRNA)	inhibition of differentiation of 3T3-L1 cells into mature adipocytes (Oil-Red-O staining) (3T3-L1 cells)	transcriptional activity in bone cells, compared to 1α,25(OH)2D3 [1]	bone calcium mobilization activity [2]	intestinal calcium transport activity [3]	cells induced to differentiate in the NBT assay [4]	differentiation of HL-60 cells, compared to 1α,25(OH)2D3 [4]	binding to the vitamin D receptor, compared to 1α,25(OH)2D3 [5]	inhibition of SCD1 mRNA induction (SCD-1 mRNA)	inhibition of differentiation of MDI-treated 3T3-L1 cells (oil-red-O staining) (3T3-L1 cells)	also measured
CC(CCCC(C)(C)O)C1CCC2C(=CC=C3CC(O)C(=CCCO)C(O)C3)CCCC21C (stereo not drawn) [1AGS]	nearly equipotent; also recorded: active	nearly equipotent; also recorded: highest activity; also recorded: so much greater; also recorded: active	significant transcriptional activity	significant ability to mobilize calcium from bone; also recorded: active	relatively high intestinal calcium transport activity; also recorded: active	same degree of differentiation	as potent as	very active	–	–	inhibition of differentiation of 3T3-L1 cells into mature adipocytes (Oil-Red-O staining) (3T3-L1 cells; listed as LAGS): slightly more active; binding to the vitamin D receptor, compared to 1α,25(OH)2D3 ([5]; listed as AGS): less than five times less potent
C=C1[C@H](O)CC(=C/C=C2\CCC[C@]3(C)C(=C(C)C)CC[C@@H]23)C[C@H]1O [VIT-I]	–	has activity	about the same transcriptional activity	very little bone calcium mobilization activity	very little activity; also recorded: less activity	–	almost as potent	bound equally well; also recorded: as well as the native hormone	active	active	–
C=C1[C@H](O)CC(=C/C=C2\CCC[C@]3(C)[C@@H]([C@@H](C)CCCC)CC[C@@H]23)C[C@H]1O [(20S)OM]	still possess activity	still possess activity	about the same transcriptional activity	very little bone calcium mobilization activity	–	–	almost as potent	as or nearly effective as calcitriol	–	–	inhibition of SCD-1 mRNA induction (SCD-1 mRNA; listed as OM): increased slightly; inhibition of differentiation of 3T3-L1 cells into mature adipocytes (Oil-Red-O staining) (3T3-L1 cells; listed as OM): increased slightly; intestinal calcium transport activity ([3]; listed as (20S)-OM): less activity; intestinal calcium transport activity ([3]; listed as OM): very little activity; binding to the vitamin D receptor, compared to 1α,25(OH)2D3 ([5]; listed as OM): bound equally well
C=C1[C@H](O)CC(=C/C=C2\CCC[C@]3(C)[C@@H](C(C)C)CC[C@@H]23)C[C@H]1O [2-MP]	nearly as potent as the native hormone	nearly as potent as the native hormone	–	little, if any, activity	little, if any, activity	–	–	as or nearly effective as calcitriol	active	active	inhibition of SCD-1 mRNA induction (SCD-1 mRNA; listed as 2MP): still active; inhibition of differentiation of 3T3-L1 cells into mature adipocytes (Oil-Red-O staining) (3T3-L1 cells; listed as 2MP): still active; increase in serum calcium [6]: without producing an increase in serum calcium
CC(CCCC(C)(C)O)C1CCC2C(=CC=C3CC(O)C(=CCCO)C(O)C3)CCCC21C (stereo not drawn) [1AGR]	nearly equipotent; also recorded: active	nearly equipotent; also recorded: so much greater; also recorded: active	significant transcriptional activity	significant ability to mobilize calcium from bone; also recorded: active	relatively high intestinal calcium transport activity; also recorded: active	same degree of differentiation	as potent as	very active	–	–	binding to the vitamin D receptor, compared to 1α,25(OH)2D3 ([5]; listed as AGR): less than five times less potent
